# In patent US20240218022A1, “ANTI-VISTA MACROCYCLIC PEPTIDES AND COMPOSITIONS” (BRISTOL-MYERS SQUIBB COMPANY, priority 2022, published 2024):
# Like-named read-outs stand apart in the source and are kept apart here. Starred links: 1 amine or outer side, 2 acyl side, 3 side chain; linkers in the order of their positions; H or OH if unused. Positions of bridges follow the written chain, without caps; N, C: chain ends. Non-standard residues stand in square brackets, D forms with d. Residues, ends and D or L forms follow the SMILES beside them. ξ: configuration not given here. Phe(3-Me) = Cc1cccc(C[C@H](N)C(=O)O)c1; γGlu = O=C(O)[C@H](CCC(=O)[*:2])N[*:1]; 2Nal = N[C@@H](Cc1ccc2ccccc2c1)C(=O)O; βAsp = O=C(O)[C@H](CC(=O)[*:2])N[*:1]; Ahp(2) = CCCCC[C@H](N)C(=O)O; NMeNle = CCCC[C@H](NC)C(=O)O; Tle = CC(C)(C)[C@H](N)C(=O)O; NHexGly = CCCCCCNCC(=O)O; Nle = CCCC[C@H](N)C(=O)O; Orn = NCCC[C@H](N)C(=O)O; Aun = NCCCCCCCCCCC(=O)O; AEEA = NCCOCCOCC(=O)O; ξP = O=C(O)C1CCCN1
# Target: T1, mouse VISTA (mVISTA) (Mus musculus, UniProt Q9D659)
# T1 construct: expressed in transfected cells; host or cells: Human embryonic kidney 293T cells
# T1 sequence (Q9D659 33-308): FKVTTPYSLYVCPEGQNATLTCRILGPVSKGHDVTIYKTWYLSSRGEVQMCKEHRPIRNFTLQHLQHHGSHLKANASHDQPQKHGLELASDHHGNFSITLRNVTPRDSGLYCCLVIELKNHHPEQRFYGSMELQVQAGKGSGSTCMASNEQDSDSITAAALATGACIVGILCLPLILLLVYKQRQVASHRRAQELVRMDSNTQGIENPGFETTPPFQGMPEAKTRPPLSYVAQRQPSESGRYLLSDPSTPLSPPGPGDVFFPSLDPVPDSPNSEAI
# Experiment: Cell-Based Binding High-Content Assay For mVISTA (HC CBA mVISTA)
# In short: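 mVISTA-293T, 4,000 cells/well; cpd ± washout step; biotin-peptide 2 nM final, 30 min RT; SA-Alexa 647 30 min; formaldehyde/Hoechst fix; HCS imaging; 4PL IC50.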
# [1] = cell-based binding high-content assay, mVISTA, read-out: HC CBA miPrISTA IC50
SMILES,IC50 [1] [nM],IC50 (read-out: HC CBA mVISTA IC50) [nM]
CCCCCCN1CC(=O)N[C@@H](Cc2ccc(O)cc2)C(=O)N[C@@H](C)C(=O)N[C@@H](CC(N)=O)C(=O)N[C@@H](CCCN)C(=O)N(C)[C@@H](CCCC)C(=O)N[C@@H](CCCCC)C(=O)N2CCC[C@H]2C(=O)N[C@@H](C(C)(C)C)C(=O)N[C@@H](CO)C(=O)N[C@H](C(=O)N[C@@H](CC(=O)NCCOCCOCC(=O)N[C@@H](CC(=O)O)C(=O)NCCOCCOCC(=O)NCCCCCCCCCCC(=O)O)C(=O)O)CSCC(=O)N[C@@H](Cc2ccccc2)C(=O)N[C@@H](Cc2c[nH]c3ccccc23)C(=O)N[C@@H](CC(=O)O)C1=O [compound 2093] ({CH2CO}-FWD[NHexGly]YAN[Orn][NMeNle][Ahp(2)]P[Tle]SC[βAsp][AEEA]D[AEEA][Aun]-OH; thioether N-14),22.1,
CCCCCCN1CC(=O)N[C@@H](Cc2ccc(O)cc2)C(=O)N[C@@H](C)C(=O)N[C@@H](CC(N)=O)C(=O)N[C@@H](CCCNC(=N)N)C(=O)N(C)[C@@H](CCCC)C(=O)N[C@@H](CCCCC)C(=O)N2CCC[C@H]2C(=O)N[C@@H](C(C)(C)C)C(=O)N[C@@H](CC(=O)O)C(=O)N[C@H](C(=O)N[C@@H](CC(=O)NCCOCCOCC(=O)N[C@@H](CC(=O)O)C(=O)NCCOCCOCC(=O)NCCCCCCCCCCC(=O)O)C(=O)O)CSCC(=O)N[C@@H](Cc2ccccc2)C(=O)N[C@@H](Cc2c[nH]c3ccccc23)C(=O)N[C@@H](CC(=O)O)C1=O [compound 2094] ({CH2CO}-FWD[NHexGly]YANR[NMeNle][Ahp(2)]P[Tle]DC[βAsp][AEEA]D[AEEA][Aun]-OH; thioether N-14),34.7,
CCCCCCN1CC(=O)N[C@@H](Cc2ccc(O)cc2)C(=O)N[C@@H](C)C(=O)N[C@@H](CC(N)=O)C(=O)N[C@@H](CCCN)C(=O)N(C)[C@@H](CCCC)C(=O)N[C@@H](CCCCC)C(=O)N2CCC[C@H]2C(=O)N[C@@H](C(C)(C)C)C(=O)N[C@@H](CC(=O)O)C(=O)N[C@H](C(=O)N[C@@H](CC(=O)NCCOCCOCC(=O)N[C@@H](CC(=O)O)C(=O)NCCOCCOCC(=O)NCCCCCCCCCCC(=O)O)C(=O)O)CSCC(=O)N[C@@H](Cc2ccccc2)C(=O)N[C@@H](Cc2ccc(O)cc2)C(=O)N[C@@H](CC(=O)O)C1=O [compound 2095] ({CH2CO}-FYD[NHexGly]YAN[Orn][NMeNle][Ahp(2)]P[Tle]DC[βAsp][AEEA]D[AEEA][Aun]-OH; thioether N-14),50.1,
CCCCCCN1CC(=O)N[C@@H](Cc2ccc(O)cc2)C(=O)N[C@@H](C)C(=O)N[C@@H](CC(N)=O)C(=O)N[C@@H](CCCNC(=N)N)C(=O)N(C)[C@@H](CCCC)C(=O)N[C@@H](CCCCC)C(=O)N2CCC[C@H]2C(=O)N[C@@H](C(C)(C)C)C(=O)N[C@@H](CC(=O)O)C(=O)N[C@H](C(=O)N[C@@H](CC(=O)NCCOCCOCC(=O)N[C@@H](CC(=O)O)C(=O)NCCOCCOCC(=O)NCCCCCCCCCCC(=O)O)C(=O)O)CSCC(=O)N[C@@H](Cc2ccccc2)C(=O)N[C@@H](Cc2ccc(O)cc2)C(=O)N[C@@H](CC(=O)O)C1=O [compound 2096] ({CH2CO}-FYD[NHexGly]YANR[NMeNle][Ahp(2)]P[Tle]DC[βAsp][AEEA]D[AEEA][Aun]-OH; thioether N-14),20,
CCCCCCN1CC(=O)N[C@@H](Cc2ccc(O)cc2)C(=O)N[C@@H](C)C(=O)N[C@@H](CC(N)=O)C(=O)N[C@@H](CCCN)C(=O)N(C)[C@@H](CCCC)C(=O)N[C@@H](CCCCC)C(=O)N2CCC[C@H]2C(=O)N[C@@H](C(C)(C)C)C(=O)N[C@@H](CC(=O)O)C(=O)N[C@H](C(=O)N[C@@H](CC(=O)NCCOCCOCC(=O)N[C@@H](CC(=O)O)C(=O)NCCOCCOCC(=O)NCCCCCCCCCCC(=O)O)C(=O)O)CSCC(=O)N[C@@H](Cc2ccccc2)C(=O)N[C@@H](Cc2c[nH]c3ccccc23)C(=O)N[C@@H](CC(=O)O)C1=O [compound 2097] ({CH2CO}-FWD[NHexGly]YAN[Orn][NMeNle][Ahp(2)]P[Tle]DC[βAsp][AEEA]D[AEEA][Aun]-OH; thioether N-14),22.2,
CCCCCCN1CC(=O)N[C@@H](Cc2ccc(O)cc2)C(=O)N[C@@H](C)C(=O)N[C@@H](CC(N)=O)C(=O)N[C@@H](CCCNC(=N)N)C(=O)N(C)[C@@H](CCCC)C(=O)N[C@@H](CCCCC)C(=O)N2CCC[C@H]2C(=O)N[C@@H](C(C)(C)C)C(=O)N[C@@H](CO)C(=O)N[C@H](C(=O)N[C@@H](CC(=O)NCCOCCOCC(=O)N[C@@H](CC(=O)O)C(=O)NCCOCCOCC(=O)NCCCCCCCCCCC(=O)O)C(=O)O)CSCC(=O)N[C@@H](Cc2ccccc2)C(=O)N[C@@H](Cc2c[nH]c3ccccc23)C(=O)N[C@@H](CC(=O)O)C1=O [compound 2098] ({CH2CO}-FWD[NHexGly]YANR[NMeNle][Ahp(2)]P[Tle]SC[βAsp][AEEA]D[AEEA][Aun]-OH; thioether N-14),36.6,
CCCCCCN1CC(=O)N[C@@H](Cc2ccc(O)cc2)C(=O)N[C@@H](CCCC)C(=O)N[C@@H](CC(=O)O)C(=O)N[C@@H](CCCNC(=N)N)C(=O)N[C@@H](CC(C)C)C(=O)N[C@@H](CCCCC)C(=O)N2CCCC2C(=O)N[C@@H](C(C)C)C(=O)N[C@@H](CC(N)=O)C(=O)N[C@H](C(=O)NCC(=O)N[C@@H](CC(=O)NCCOCCOCC(=O)N[C@@H](CC(=O)O)C(=O)NCCOCCOCC(=O)NCCCCCCCCCCC(=O)O)C(=O)O)CSCC(=O)N[C@@H](Cc2ccccc2)C(=O)N[C@@H](Cc2ccc(O)cc2)C(=O)N[C@@H](CC(=O)O)C1=O (stereo partly drawn) [compound 2108] ({CH2CO}-FYD[NHexGly]Y[Nle]DRL[Ahp(2)][ξP]VNCG[βAsp][AEEA]D[AEEA][Aun]-OH; thioether N-14),,14.4

# The remaining lines, values ahead:
IC50 [1] [nM],IC50 (read-out: HC CBA mVISTA IC50) [nM],SMILES
,17.9,CCCCCCN1CC(=O)N[C@@H](Cc2ccc(O)cc2)C(=O)N[C@@H](CCCC)C(=O)N[C@@H](CC(N)=O)C(=O)N[C@@H](CCCNC(=N)N)C(=O)N[C@@H](CC(C)C)C(=O)N[C@@H](CCCCC)C(=O)N2CCC[C@@H]2C(=O)N[C@@H](C(C)C)C(=O)N[C@@H](CO)C(=O)N[C@H](C(=O)NCC(=O)N[C@@H](CCC(=O)NCCOCCOCC(=O)N[C@@H](CC(=O)O)C(=O)NCCOCCOCC(=O)NCCCCCCCCCCC(=O)O)C(=O)O)CSCC(=O)N[C@@H](Cc2ccc3ccccc3c2)C(=O)N[C@@H](Cc2ccc(O)cc2)C(=O)N[C@@H](CC(=O)O)C1=O [compound 2123] ({CH2CO}-[2Nal]YD[NHexGly]Y[Nle]NRL[Ahp(2)][dP]VSCG[γGlu][AEEA]D[AEEA][Aun]-OH; thioether N-14)
,19.6,CCCCCCN1CC(=O)N[C@@H](Cc2ccc(O)cc2)C(=O)N[C@@H](CCCC)C(=O)N[C@@H](CC(N)=O)C(=O)N[C@@H](CCCNC(=N)N)C(=O)N(C)[C@@H](CCCC)C(=O)N[C@@H](CCCCC)C(=O)N2CCCC2C(=O)N[C@@H](C(C)C)C(=O)N[C@@H](CC(=O)O)C(=O)N[C@H](C(=O)NCC(=O)N[C@@H](CCC(=O)NCCOCCOCC(=O)N[C@@H](CC(=O)O)C(=O)NCCOCCOCC(=O)NCCCCCCCCCCC(=O)O)C(=O)O)CSCC(=O)N[C@@H](Cc2ccc3ccccc3c2)C(=O)N[C@@H](Cc2c[nH]c3ccccc23)C(=O)N[C@@H](CC(=O)O)C1=O (stereo partly drawn) [compound 2125] ({CH2CO}-[2Nal]WD[NHexGly]Y[Nle]NR[NMeNle][Ahp(2)][ξP]VDCG[γGlu][AEEA]D[AEEA][Aun]-OH; thioether N-14)
,32.7,CCCCCCN1CC(=O)N[C@@H](Cc2ccc(O)cc2)C(=O)N[C@@H](CCCC)C(=O)N[C@@H](CC(N)=O)C(=O)N[C@@H](CCCNC(=N)N)C(=O)N(C)[C@@H](CCCC)C(=O)N[C@@H](CCCCC)C(=O)N2CCC[C@H]2C(=O)N[C@@H](C(C)C)C(=O)N[C@@H](CC(=O)O)C(=O)N[C@H](C(=O)NCCOCCOCC(=O)N[C@@H](CCC(=O)NCCOCCOCC(=O)NCCCCCCCCCCC(=O)O)C(=O)O)CSCC(=O)N[C@@H](Cc2ccc3ccccc3c2)C(=O)N[C@@H](Cc2c[nH]c3ccccc23)C(=O)N[C@@H](CC(=O)O)C1=O [compound 2214] ({CH2CO}-[2Nal]WD[NHexGly]Y[Nle]NR[NMeNle][Ahp(2)]PVDC[AEEA][γGlu][AEEA][Aun]-OH; thioether N-14)
,28.3,CCCCCCN1CC(=O)N[C@@H](Cc2ccc(O)cc2)C(=O)N[C@@H](CCCCC)C(=O)NCC(=O)N[C@@H](CCCNC(=N)N)C(=O)N[C@@H](CC(C)C)C(=O)N[C@@H](CCCCC)C(=O)N2CCC[C@H]2C(=O)N[C@@H](C(C)C)C(=O)N[C@@H](CO)C(=O)N[C@H](C(=O)NCCOCCOCC(=O)N[C@@H](CCC(=O)NCCOCCOCC(=O)NCCCCCCCCCCC(=O)O)C(=O)O)CSCC(=O)N[C@@H](Cc2ccccc2)C(=O)N[C@@H](Cc2ccc(O)cc2)C(=O)N[C@@H](CC(=O)O)C1=O [compound 2215] ({CH2CO}-FYD[NHexGly]Y[Ahp(2)]GRL[Ahp(2)]PVSC[AEEA][γGlu][AEEA][Aun]-OH; thioether N-14)
,24.3,CCCCCCN1CC(=O)N[C@@H](Cc2ccc(O)cc2)C(=O)N[C@@H](CCCC)C(=O)NCC(=O)N[C@@H](CCCNC(=N)N)C(=O)N[C@@H](CC(C)C)C(=O)N[C@@H](CCCCC)C(=O)N2CCC[C@H]2C(=O)N[C@@H](C(C)C)C(=O)N[C@@H](CC(=O)O)C(=O)N[C@H](C(=O)NCCOCCOCC(=O)N[C@@H](CCC(=O)NCCOCCOCC(=O)NCCCCCCCCCCC(=O)O)C(=O)O)CSCC(=O)N[C@@H](Cc2cccc(C)c2)C(=O)N[C@@H](Cc2ccc(O)cc2)C(=O)N[C@@H](CC(=O)O)C1=O [compound 2216] ({CH2CO}-[Phe(3-Me)]YD[NHexGly]Y[Nle]GRL[Ahp(2)]PVDC[AEEA][γGlu][AEEA][Aun]-OH; thioether N-14)
